Structures are written as SMILES. pIC50: −log10 of the molar value.

The target of this experiment is T1, Prostacyclin Receptors (IP Receptors) of Human Thrombocyte Membranes (Homo sapiens, UniProt P43119).
T1 construct: Thrombocyte membranes are obtained by centrifuging 50 ml human blood; tissue Maco Pharma, Langen (buffy coats); host or cells: human thrombocyte (platelet) membranes from human blood
T1 sequence (P43119 whole entry): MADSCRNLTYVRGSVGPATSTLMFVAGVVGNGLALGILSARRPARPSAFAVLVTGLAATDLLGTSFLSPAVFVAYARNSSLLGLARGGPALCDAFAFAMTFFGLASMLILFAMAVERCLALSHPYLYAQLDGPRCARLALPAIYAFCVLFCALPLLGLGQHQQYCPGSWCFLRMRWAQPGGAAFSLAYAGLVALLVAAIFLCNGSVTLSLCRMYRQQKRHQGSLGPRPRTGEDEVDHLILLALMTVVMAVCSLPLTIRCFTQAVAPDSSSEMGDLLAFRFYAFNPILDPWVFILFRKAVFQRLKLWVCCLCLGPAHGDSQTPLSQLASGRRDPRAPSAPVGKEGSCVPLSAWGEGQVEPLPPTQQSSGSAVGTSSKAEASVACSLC
Description: Binding to prostacyclin receptors (IP receptors) of human thrombocyte membranes (3H-Iloprost displacement). The note with it: 3 nM 3H-Iloprost, 300-1000 μg/ml human thrombocyte membranes, 60 min, room temperature. As for the experimental part:
B-1. Studies of Binding to Prostacyclin Receptors (IP Receptors) of Human Thrombocyte Membranes
Thrombocyte membranes are obtained by centrifuging 50 ml human blood (Buffy coats with CDP Stabilizer, from Maco Pharma, Langen) for 20 min at 160×g. Remove the supernatant (platelet-rich plasma, PRP) and then centrifuge again at 2000×g for 10 min at room temperature. Resuspend the sediment in 50 mM tris-(hydroxymethyl)-aminomethane, which has been adjusted to a pH of 7.4 with 1 N hydrochloric acid, and store at −20° C. overnight. On the next day, centrifuge the suspension at 80000×g and 4° C. for 30 min. Discard the supernatant. Resuspend the sediment in 50 mM tris-(hydroxymethyl)-aminomethane/hydrochloric acid, 0.25 mM ethylene diamine tetraacetic acid (EDTA), pH 7.4, and then centrifuge once again at 80000×g and 4° C. for 30 min. Take up the membrane sediment in binding buffer (50 mM tris-(hydroxymethyl)-aminomethane/hydrochloric acid, 5 mM magnesium chloride, pH 7.4) and store at −70° C. until the binding test.
For the binding test, incubate 3 nM ^3H-Iloprost (592 GBq/mmol, from AmershamBioscience) for 60 min with 300-1000 μg/ml human thrombocyte membranes per charge (max. 0.2 ml) in the presence of the test substances at room temperature. After stopping, add cold binding buffer to the membranes and wash with 0.1% bovine serum albumin. After adding Ultima Gold Scintillator, quantify the radioactivity bound to the membranes using a scintillation counter. The nonspecific binding is defined as radioactivity in the presence of 1 μM Iloprost (from Cayman Chemical, Ann Arbor) and is as a rule <25% of the bound total radioactivity. The binding data (IC50 values) are determined using the program GraphPad Prism Version 3.02.
Take `COC(=O)CCCCC(C)Oc1ncnc2oc(-c3ccccc3)c(-c3ccc(OC)cc3)c12` (racemic) [Example 63, (+/−)-6-{[5-(4-Methoxyphenyl)-6-phenylfuro[2,3-d]pyrimidin-4-yl]oxy}heptanoic acid methyl ester]: the pIC50 is 7.43. `COc1ccc(-c2c(-c3ccccc3)oc3ncnc(OC(C)CN(C)CCCC(=O)O)c23)cc1` (racemic) [Example 92, (+/−)-4-[(2-{[5-(4-Methoxyphenyl)-6-phenylfuro[2,3-d]pyrimidin-4-yl]oxy}propyl)(methyl)-amino]butanoic acid] gave a pIC50 of 6.66. `COc1ccc(-c2c(-c3ccccc3)oc3ncnc(OCC(C)COCC(=O)O)c23)cc1` (single isomer, unassigned; enantiomer 1) [Example 128, (+)-(3-{[5-(4-Methoxyphenyl)-6-phenylfuro[2,3-d]pyrimidin-4-yl]oxy}-2-methylpropoxy)acetic acid (Enantiomer 1)] gave a pIC50 of 7.48.

Molecule `COc1ccc(-c2c(-c3ccccc3)oc3ncnc(O[C@H](C)CCCCC(=O)O)c23)cc1` (single isomer, unassigned; enantiomer 2) [Example 69, (−)-6-{[5-(4-Methoxyphenyl)-6-phenylfuro[2,3-d]pyrimidin-4-yl]oxy}heptanoic acid (Enantiomer 2)] showed a pIC50 of 8.05. Molecule `COc1ccc(-c2c(-c3ccccc3)oc3ncnc(OC(C)CC(C)OCC(=O)O)c23)cc1` (single isomer, unassigned; enantiomer 2) [Example 146, (3-{[5-(4-Methoxyphenyl)-6-phenylfuro[2,3-d]pyrimidin-4-yl]oxy}-1-methylbutoxy)acetic acid (Enantiomer 2)] had a pIC50 of 8.15. In turn, `COc1ccc(-c2c(-c3ccccc3)oc3ncnc(NCCCCCC(=O)O)c23)cc1` [Example 1, 6-{[5-(4-Methoxyphenyl)-6-phenylfuro[2,3-d]pyrimidin-4-yl]amino}hexanoic acid] gave a pIC50 of 6.69. This pIC50 lies 1.46 log units lower than the previous one. `COc1ccc(-c2c(-c3ccccc3)oc3ncnc(NCCCCCc4nnn[nH]4)c23)cc1` [Example 4, 5-(4-Methoxyphenyl)-6-phenyl-N-[5-(1H-tetrazol-5-yl)pentyl]furo[2,3-d]pyrimidine-4-amine] gave a pIC50 of 7.47.

For `COc1ccc(-c2c(-c3ccccc3)oc3ncnc(OCCCCCc4nnn[nH]4)c23)cc1` [Example 14, 5-(4-Methoxyphenyl)-6-phenyl-4-{[5-(1H-tetrazol-5-yl)pentyl]oxy}-furo[2,3-d]pyrimidine], the pIC50 was 7.31.

On to `COc1ccc(-c2c(-c3ccccc3)oc3ncnc(NCCCOCCc4nnn[nH]4)c23)cc1` [Example 15, 5-(4-Methoxyphenyl)-6-phenyl-N-{3-[2-(1H-tetrazol-5-yl)ethoxy]propyl}furo[2,3-d]pyrimidine-4-amine], for which the pIC50 is 7.09.

`C=Cc1ccc(-c2c(-c3ccccc3)oc3ncnc(NCCCCCC(=O)O)c23)cc1` [Example 33] gave a pIC50 of 7.19. Take `CCc1ccc(-c2c(-c3ccccc3)oc3ncnc(NCCCCCC(=O)OC)c23)cc1` [Example 36]: the pIC50 was 6.66. Molecule `COC(=O)CCCCCN(C)c1ncnc2oc(-c3ccccc3)c(-c3ccc(OC)cc3)c12` [Example 45, 6-{[5-(4-Methoxyphenyl)-6-phenylfuro[2,3-d]pyrimidin-4-yl](methyl)amino}hexanoic acid methyl ester] showed a pIC50 of 6.05. In the case of `CCc1ccc(-c2c(-c3ccccc3)oc3ncnc(O[C@H](C)CCOCC(=O)O)c23)cc1` [Example 80, (−)-{[3-{[5-(4-Ethylphenyl)-6-phenylfuro[2,3-d]pyrimidin-4-yl]oxy}butyl]oxy}acetic acid], the pIC50 is 7.66. Under `COc1ccc(-c2c(-c3ccccc3)oc3ncnc(OC[C@H](C)OCCC(=O)O)c23)cc1` [Example 83, (+)-3-{[(2S)-2-{[5-(4-Methoxyphenyl)-6-phenylfuro[2,3-d]pyrimidin-4-yl]oxy}-1-methylethoxy]-oxy}propionic acid] stands 7.70; under `CCc1ccc(-c2c(-c3ccccc3)oc3ncnc(O[C@@H](C)COCCC(=O)O)c23)cc1` [Example 85, (+)-3-{[2-{[5-(4-Ethylphenyl)-6-phenylfuro[2,3-d]pyrimidin-4-yl]oxy}propyl]oxy}propionic acid], 6.33; under `COc1ccc(-c2c(-c3ccccc3)oc3ncnc(OCC(C)(C)COCC(=O)O)c23)cc1` [Example 95, (3-{[5-(4-Methoxyphenyl)-6-phenylfuro[2,3-d]pyrimidin-4-yl]oxy}-2,2-dimethylpropoxy)acetic acid], 8.00. In the case of `COC(=O)CCCCCNc1ncnc2oc(-c3ccccc3F)c(-c3ccc(OC)cc3)c12` [Example 113, 6-{[6-(2-Fluorophenyl)-5-(4-methoxyphenyl)furo[2,3-d]pyrimidin-4-yl]amino}hexanoic acid methyl ester] it was 7.29; in that of `COc1ccc(-c2c(-c3ccccc3Cl)oc3ncnc(NCCCCCC(=O)O)c23)cc1` [Example 117, 6-{[6-(2-Chlorophenyl)-5-(4-methoxyphenyl)furo[2,3-d]pyrimidin-4-yl]amino}hexanoic acid], 7.08. With `COc1ccc(-c2c(-c3ccccc3C)oc3ncnc(NCCCCCC(=O)O)c23)cc1` [Example 122, 6-{[5-(4-Methoxyphenyl)-6-(2-methylphenyl)furo[2,3-d]pyrimidin-4-yl]amino}hexanoic acid], the pIC50 is 7.32. Molecule `COc1ccc(-c2c(-c3ccccc3F)oc3ncnc(O[C@@H](C)CN(C)CCCC(=O)O)c23)cc1` [Example 138, (+)-4-{[(2S)-2-{[6-(2-Fluorophenyl)-5-(4-methoxyphenyl)furo[2,3-d]pyrimidin-4-yl]oxy}propyl]-(methyl)amino}butyric acid] showed a pIC50 of 7.28. Under `CCc1ccc(-c2c(-c3ccccc3)oc3ncnc(O[C@@H](C)CN(C)CCCC(=O)O)c23)cc1` [Example 140, (+)-4-{[(2S)-2-{[5-(4-Ethylphenyl)-6-phenylfuro[2,3-d]pyrimidin-4-yl]oxy}propyl](methyl)-amino}butyric acid] stands 7.28; under `CCc1ccc(-c2c(-c3ccccc3F)oc3ncnc(O[C@H](C)CCCCC(=O)O)c23)cc1` [Example 142, (−)-(6R)-6-{[5-(4-Ethylphenyl)-6-(2-fluorophenyl)furo[2,3-d]pyrimidin-4-yl]oxy}heptanoic acid], 8.60.

The molecule `CCOC(=O)COC[C@@H](C)COc1ncnc2oc(-c3ccccc3F)c(-c3ccc(OC)cc3)c12` [Example 152, (−)-{[(2R)-3-{[5-(4-Methoxyphenyl)-6-(2-fluorophenyl)furo[2,3-d]pyrimidin-4-yl]oxy}-2-methyl-propyl]oxy}acetic acid ethyl ester] gave a pIC50 of 8.43. As to `CCc1ccc(-c2c(-c3ccccc3F)oc3ncnc(OC[C@H](C)COCC(=O)O)c23)cc1` [Example 154, (−)-{[(2R)-3-{[5-(4-Ethylphenyl)-6-(2-fluorophenyl)furo[2,3-d]pyrimidin-4-yl]oxy}-2-methyl-propyl]oxy}acetic acid], the pIC50 was 8.42. On to `CCc1ccc(-c2c(-c3ccccc3F)oc3ncnc(OC[C@H](C)OCCC(=O)O)c23)cc1` [Example 156, 3-[(1S)-2-{[5-(4-Ethylphenyl)-6-(2-fluorophenyl)furo[2,3-d]pyrimidin-4-yl]oxy}-1-methylethoxy]-propionic acid], for which the pIC50 was 7.89.

For the origin of these results see patent US8183246B2, “Acyclically substituted furopyrimidine derivatives and use thereof” (Bayer Intellectual Property GmbH, priority 2005, dated 2012).
